Data published in ChEMBL document CHEMBL3407357, “Inhibiting the deubiquitinating enzymes (DUBs)” (J Med Chem, 2015).

Key:
[1] = molecular target: T1, Ubiquitin carboxyl-terminal hydrolase 1 (Homo sapiens, UniProt O94782); experiment: Inhibition of USP1 (unknown origin) by Ub-AMC assay
T1 sequence (O94782 whole entry): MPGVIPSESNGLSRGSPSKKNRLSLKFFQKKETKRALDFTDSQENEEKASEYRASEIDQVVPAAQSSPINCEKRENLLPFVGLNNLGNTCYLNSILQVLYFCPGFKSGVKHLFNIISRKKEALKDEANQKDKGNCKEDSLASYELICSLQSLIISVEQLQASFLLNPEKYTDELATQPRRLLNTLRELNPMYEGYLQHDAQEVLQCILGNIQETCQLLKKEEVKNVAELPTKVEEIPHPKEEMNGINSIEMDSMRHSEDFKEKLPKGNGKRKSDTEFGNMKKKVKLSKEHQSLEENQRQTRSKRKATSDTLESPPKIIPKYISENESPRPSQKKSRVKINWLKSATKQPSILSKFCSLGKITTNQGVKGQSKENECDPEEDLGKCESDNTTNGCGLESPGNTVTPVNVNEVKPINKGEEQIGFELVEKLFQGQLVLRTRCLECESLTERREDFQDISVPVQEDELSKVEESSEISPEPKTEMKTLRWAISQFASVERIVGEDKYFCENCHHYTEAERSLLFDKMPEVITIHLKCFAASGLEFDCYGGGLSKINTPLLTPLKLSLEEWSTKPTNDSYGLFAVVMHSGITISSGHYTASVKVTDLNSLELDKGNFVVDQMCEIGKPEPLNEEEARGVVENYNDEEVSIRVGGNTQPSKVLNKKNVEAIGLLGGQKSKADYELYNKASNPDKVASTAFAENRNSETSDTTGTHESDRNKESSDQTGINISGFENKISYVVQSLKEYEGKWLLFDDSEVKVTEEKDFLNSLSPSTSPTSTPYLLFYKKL

[2] = molecular target: T2, Ubiquitin carboxyl-terminal hydrolase 7 (Homo sapiens, UniProt Q93009); experiment: Inhibition of USP7 (unknown origin) by Ub-AMC assay
T2 sequence (Q93009 whole entry): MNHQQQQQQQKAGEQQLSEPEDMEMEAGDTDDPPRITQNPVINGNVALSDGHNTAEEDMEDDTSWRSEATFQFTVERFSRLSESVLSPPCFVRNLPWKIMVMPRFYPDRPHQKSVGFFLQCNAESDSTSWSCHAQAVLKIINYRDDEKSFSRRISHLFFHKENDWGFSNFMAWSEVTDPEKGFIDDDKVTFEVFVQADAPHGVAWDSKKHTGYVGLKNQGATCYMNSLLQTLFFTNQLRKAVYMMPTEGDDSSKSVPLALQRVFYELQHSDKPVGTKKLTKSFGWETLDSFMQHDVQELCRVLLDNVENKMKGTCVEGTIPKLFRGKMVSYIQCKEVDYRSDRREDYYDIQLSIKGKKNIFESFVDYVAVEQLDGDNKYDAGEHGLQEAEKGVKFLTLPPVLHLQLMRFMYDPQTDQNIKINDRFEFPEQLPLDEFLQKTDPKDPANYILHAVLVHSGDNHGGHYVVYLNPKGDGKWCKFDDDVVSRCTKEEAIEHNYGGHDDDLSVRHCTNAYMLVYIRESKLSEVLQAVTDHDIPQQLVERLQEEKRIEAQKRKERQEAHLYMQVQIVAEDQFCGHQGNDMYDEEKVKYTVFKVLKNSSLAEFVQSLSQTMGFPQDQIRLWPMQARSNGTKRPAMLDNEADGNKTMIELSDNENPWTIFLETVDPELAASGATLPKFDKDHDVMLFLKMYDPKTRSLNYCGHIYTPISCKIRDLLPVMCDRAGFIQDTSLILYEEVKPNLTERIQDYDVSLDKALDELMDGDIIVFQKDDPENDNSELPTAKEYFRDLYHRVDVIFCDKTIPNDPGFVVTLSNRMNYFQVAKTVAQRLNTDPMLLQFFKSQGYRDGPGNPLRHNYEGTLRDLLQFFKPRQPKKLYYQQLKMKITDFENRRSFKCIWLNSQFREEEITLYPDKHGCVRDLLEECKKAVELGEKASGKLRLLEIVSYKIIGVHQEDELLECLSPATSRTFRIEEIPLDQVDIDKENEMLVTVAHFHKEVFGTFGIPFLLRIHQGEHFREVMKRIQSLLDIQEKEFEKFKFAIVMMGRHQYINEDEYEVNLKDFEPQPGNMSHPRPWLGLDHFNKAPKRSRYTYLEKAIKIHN

[3] = molecular target: Ubiquitin carboxyl-terminal hydrolase 10 (Homo sapiens, UniProt Q14694); experiment: Inhibition of USP10 (unknown origin) by Ub-AMC assay
Ubiquitin carboxyl-terminal hydrolase 10, sequence (Q14694 whole entry): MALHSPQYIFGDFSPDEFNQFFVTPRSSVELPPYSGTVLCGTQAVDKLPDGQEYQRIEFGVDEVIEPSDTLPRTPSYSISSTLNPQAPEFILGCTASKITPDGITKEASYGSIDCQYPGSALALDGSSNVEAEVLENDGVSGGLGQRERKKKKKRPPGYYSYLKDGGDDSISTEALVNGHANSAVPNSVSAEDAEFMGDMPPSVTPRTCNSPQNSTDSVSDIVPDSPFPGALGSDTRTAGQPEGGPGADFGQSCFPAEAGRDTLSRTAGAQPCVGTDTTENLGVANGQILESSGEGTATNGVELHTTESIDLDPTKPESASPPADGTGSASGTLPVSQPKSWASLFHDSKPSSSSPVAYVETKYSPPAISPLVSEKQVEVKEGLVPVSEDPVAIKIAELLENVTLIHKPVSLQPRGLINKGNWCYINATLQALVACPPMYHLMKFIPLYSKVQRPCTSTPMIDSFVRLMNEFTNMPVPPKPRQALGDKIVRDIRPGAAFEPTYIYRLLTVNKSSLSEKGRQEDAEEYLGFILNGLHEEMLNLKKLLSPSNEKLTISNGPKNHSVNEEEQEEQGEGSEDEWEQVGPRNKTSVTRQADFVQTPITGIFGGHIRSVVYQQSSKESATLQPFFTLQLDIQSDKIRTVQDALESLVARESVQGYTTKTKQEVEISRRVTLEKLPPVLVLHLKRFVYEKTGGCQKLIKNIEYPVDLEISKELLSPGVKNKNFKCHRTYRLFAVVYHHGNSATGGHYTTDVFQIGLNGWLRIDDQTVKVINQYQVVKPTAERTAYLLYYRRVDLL

[4] = molecular target: T3, Ubiquitin carboxyl-terminal hydrolase 13 (Homo sapiens, UniProt Q92995); experiment: Inhibition of USP13 (unknown origin) by Ub-AMC assay
T3 sequence (Q92995 whole entry): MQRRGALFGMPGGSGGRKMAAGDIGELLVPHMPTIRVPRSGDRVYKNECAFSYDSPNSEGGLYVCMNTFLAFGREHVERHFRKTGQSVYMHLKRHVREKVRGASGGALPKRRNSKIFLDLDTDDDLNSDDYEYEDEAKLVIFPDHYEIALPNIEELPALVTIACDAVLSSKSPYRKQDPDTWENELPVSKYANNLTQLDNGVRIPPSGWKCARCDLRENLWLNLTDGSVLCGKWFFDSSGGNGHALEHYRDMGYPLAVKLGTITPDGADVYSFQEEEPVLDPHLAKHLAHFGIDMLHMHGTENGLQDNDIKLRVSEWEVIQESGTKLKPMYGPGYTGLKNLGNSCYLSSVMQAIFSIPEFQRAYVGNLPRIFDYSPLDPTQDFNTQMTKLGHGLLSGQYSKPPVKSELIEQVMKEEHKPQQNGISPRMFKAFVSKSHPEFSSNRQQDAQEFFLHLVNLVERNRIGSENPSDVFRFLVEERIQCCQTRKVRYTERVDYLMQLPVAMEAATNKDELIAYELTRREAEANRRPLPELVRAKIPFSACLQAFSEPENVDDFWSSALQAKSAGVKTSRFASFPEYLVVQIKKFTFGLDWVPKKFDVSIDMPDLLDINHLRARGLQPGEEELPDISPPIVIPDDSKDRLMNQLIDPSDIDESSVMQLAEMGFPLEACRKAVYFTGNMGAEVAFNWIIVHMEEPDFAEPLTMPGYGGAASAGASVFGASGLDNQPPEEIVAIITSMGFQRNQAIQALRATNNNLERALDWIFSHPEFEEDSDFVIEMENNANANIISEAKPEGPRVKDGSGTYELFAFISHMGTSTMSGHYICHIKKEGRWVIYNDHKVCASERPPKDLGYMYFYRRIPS

[5] = molecular target: T2, Ubiquitin carboxyl-terminal hydrolase 7; experiment: Inhibition of USP7 (unknown origin) by Ub-CHOP reporter assay
[6] = molecular target: T2, Ubiquitin carboxyl-terminal hydrolase 7; experiment: Inhibition of USP7 in multiple myeloma cells (unknown origin) by immunohistochemistry; assay type: cell-based
[7] = Steady state intracellular drug concentration after 1 hr by LC-MS and UV spectroscopy by cell based assay

O=C1c2ccccc2C(=O)c2oc(-c3ccccc3)nc21
IC50 [1]: 0.544 µM

N#Cc1nc2c(nc1C#N)-c1cc(Cl)ccc1C2=O
IC50 [2]: 0.42 µM

Fc1ccc(CNc2ncnc3ccc(F)cc23)cc1
IC50 [3]: 0.6 µM | IC50 [4]: 0.6 µM

CC(=O)c1cc([N+](=O)[O-])c(Sc2cccc(Cl)c2Cl)s1
EC50 [5]: 8 µM

O=[N+]([O-])c1cc(CCO)sc1Sc1cccc(Cl)c1Cl
EC50 [6]: 20.1 µM

Cc1cc(C(=O)CN2CCCC2)c(C)n1-c1ccc(F)cc1
Drug uptake [7]: 13 µM
